# According to patent US9586942B2, “Aminotetraline and aminoindane derivatives, pharmaceutical compositions containing them, and their use in therapy” (AbbVie Deutschland GmbH & Co. KG, priority 2013, dated 2017):
# How the values were obtained:
# human GlyT1c transporter = human GlyT1c transporter (Homo sapiens (Human), UniProt P48067); assay: Radioligand binding assay using recombinant CHO cell membranes expressing human GlyT1; conditions: examples marked * tested as fumarate salts, read-out: radioligand binding Kiapp
# Sequence of human GlyT1c transporter (P48067 whole entry): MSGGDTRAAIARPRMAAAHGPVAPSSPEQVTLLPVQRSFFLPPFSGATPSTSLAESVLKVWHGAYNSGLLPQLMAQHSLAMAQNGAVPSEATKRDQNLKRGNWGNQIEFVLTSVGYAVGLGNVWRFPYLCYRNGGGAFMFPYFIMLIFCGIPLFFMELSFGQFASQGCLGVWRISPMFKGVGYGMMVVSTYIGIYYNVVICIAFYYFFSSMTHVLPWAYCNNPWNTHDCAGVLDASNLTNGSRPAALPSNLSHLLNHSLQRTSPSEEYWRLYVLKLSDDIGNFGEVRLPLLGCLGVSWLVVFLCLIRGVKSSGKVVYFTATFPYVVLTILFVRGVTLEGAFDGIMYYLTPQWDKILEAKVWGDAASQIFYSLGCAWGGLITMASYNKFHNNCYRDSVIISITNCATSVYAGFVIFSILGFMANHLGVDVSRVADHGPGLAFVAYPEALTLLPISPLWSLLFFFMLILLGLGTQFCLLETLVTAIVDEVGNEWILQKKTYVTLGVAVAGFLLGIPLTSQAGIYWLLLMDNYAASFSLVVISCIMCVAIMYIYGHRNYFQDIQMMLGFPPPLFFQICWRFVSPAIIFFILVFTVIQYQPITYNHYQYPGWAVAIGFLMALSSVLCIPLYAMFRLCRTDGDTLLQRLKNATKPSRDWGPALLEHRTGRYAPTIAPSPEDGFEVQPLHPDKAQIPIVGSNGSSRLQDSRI
# Experimental: 2. Radioligand binding assays using recombinant CHO cell membranes expressing human GlyT1:
# Radioligand binding to human GlyT1c transporter-expressing membranes was determined as described in Mezler et al., Molecular Pharmacology 74:1705-1715, 2008.
# [1] = Metabolic stability in human liver microsomes; assay type: in vitro ADME; conditions: human liver microsomes 0.25 mg protein/ml, 0.5 μM test substance, NADPH, 37° C., pH 7.4; scaled microsomal clearance; examples marked * tested as fumarate salts
# Experimental: Metabolic stability was determined as follows:
# 0.5 μM test substance was preincubated together with human liver microsomes (0.25 mg of microsomal protein/ml) in 0.05 M potassium phosphate buffer of pH 7.4 in microtiter plates at 37° C. for 5 min. The reaction was started by adding NADPH (1.0 mM). After 0, 5, 10, 15, 20 and 30 min the reaction was stopped and cooled with twice the amount of quench solution consisting of acetonitrile/methanol 1:1, and containing 0.2 μM carbutamide. The samples were frozen until analyzed. The remaining concentration of undegraded test substance was determined by LC MSMS. The half-life (T1/2) was determined from the gradient of the signal of test substance/unit time plot, allowing to calculate the half-life of the test substance, assuming first order kinetics, from the decrease in the concentration of the compound with time. The microsomal clearance (mClint) was calculated as follows: mClint=((ln(2)/t 1/2)/Microsomal Protein Concentration (mg/ml))*1000, leading to the unit of uLmin/mg. The scaled clearance (mClin_scaled) was calculated as mCLint_scaled=m CLint*(Microsomal Yield (mg/kg BW))/1000000*60, leading to the units L/hr/kg. The Microsomal Yield is defined by the specifics of the used microsomes. Calculations were modified from references: Di, The Society for Biomolecular Screening, 2003, 453-462; Obach, DMD, 1999 vol 27. N 11, 1350-1359.
SMILES,Ki (human GlyT1c transporter) [nM],human mCl [1]
"Cn1cnc(S(=O)(=O)N[C@H]2CCN(c3ccc4c(c3)[C@@H](Cc3ccccc3)[C@@H](N3CCC3)CC4)C2)c1 [Example 10, N-((S)-1-((7S,8R)-7-(azetidin-1-yl)-8-benzyl-5,6,7,8-tetrahydronaphthalen-2-yl)pyrrolidin-3-yl)-1-methyl-1H-imidazole-4-sulfonamide]",≤ 1000,≦5 L/h/Kg
"Cn1cnc(S(=O)(=O)N[C@H]2C[C@@H](c3ccc4c(c3)[C@@H](Cc3ccccc3)[C@@H](N3CCC3)CC4)C2)c1 [Example 13, N-((1 S,3s)-3-((7S,8R)-7-(azetidin-1-yl)-8-benzyl-5,6,7,8-tetrahydronaphthalen-2-yl)cyclobutyl)-1-methyl-1H-imidazole-4-sulfonamide]",≤ 100,≦5 L/h/Kg
"CCS(=O)(=O)NC1(C)CN(c2ccc3c(c2)[C@@H](Cc2ccccc2)[C@@H](N2CCC2)CC3)C1 [Example 8, N-(1-((7S,8R)-7-(azetidin-1-yl)-8-benzyl-5,6,7,8-tetrahydronaphthalen-2-yl)-3-methylazetidin-3-yl)ethanesulfonamide]",≤ 10000,≦5 L/h/Kg
"Cn1cnc(S(=O)(=O)NC2CN(c3ccc4c(c3)[C@@H](Cc3ccccc3)[C@@H](N3CC5CC5C3)CC4)C2)c1 (stereo partly drawn) [Example 15, N-(1-((7S,8R)-8-benzyl-7-(3-azabicyclo[3.1.0]hexan-3-yl)-5,6,7,8-tetrahydronaphthalen-2-yl)azetidin-3-yl)-1-methyl-1H-imidazole-4-sulfonamide]",≤ 100,≦5 L/h/Kg
"O=S(=O)(NC1CN(c2ccc3c(c2)[C@@H](Cc2ccccc2)[C@@H](N2CCC2)CC3)C1)c1ccc2c(c1)OC(F)(F)O2 [Example 6, N-(1-((7S,8R)-7-(azetidin-1-yl)-8-benzyl-5,6,7,8-tetrahydronaphthalen-2-yl)azetidin-3-yl)-2,2-difluorobenzo[d][1,3]dioxole-5-sulfonamide]",≤ 10000,≦500 L/h/Kg
"Cn1cnc(S(=O)(=O)N[C@@H]2CCN(c3ccc4c(c3)[C@@H](Cc3ccccc3)[C@@H](N3CCC3)CC4)C2)c1 [Example 9, N-((R)-1-((7S,8R)-7-(azetidin-1-yl)-8-benzyl-5,6,7,8-tetrahydronaphthalen-2-yl)pyrrolidin-3-yl)-1-methyl-1H-imidazole-4-sulfonamide]",≤ 100,≦5 L/h/Kg
"CCCS(=O)(=O)N[C@H]1CCN(c2ccc3c(c2)[C@@H](Cc2ccccc2)[C@@H](N2CCC2)CC3)C1=O [Example 14, N-((S)-1-((7S,8R)-7-(azetidin-1-yl)-8-benzyl-5,6,7,8-tetrahydronaphthalen-2-yl)-2-oxopyrrolidin-3-yl)propane-1-sulfonamide]",≤ 100,≦5 L/h/Kg
"Cn1cnc(S(=O)(=O)NC2CCN(c3ccc4c(c3)[C@@H](Cc3ccccc3)[C@@H](N3CCC3)CC4)CC2)c1 [Example 11, N-(1-((7S,8R)-7-(azetidin-1-yl)-8-benzyl-5,6,7,8-tetrahydronaphthalen-2-yl)piperidin-4-yl)-1-methyl-1H-imidazole-4-sulfonamide]",≤ 100,≦5 L/h/Kg
"CS(=O)(=O)NC1CN(c2ccc3c(c2)[C@@H](Cc2ccccc2)[C@@H](N2CCC2)CC3)C1 [Example 3, N-(1-((7S,8R)-7-(azetidin-1-yl)-8-benzyl-5,6,7,8-tetrahydronaphthalen-2-yl)azetidin-3-yl)methanesulfonamide]",≤ 1000,≦5 L/h/Kg
"CCS(=O)(=O)NC1CN(c2ccc3c(c2)[C@@H](Cc2ccccc2)[C@@H](N2CCC2)CC3)C1 [Example 4, N-(1-((7S,8R)-7-(azetidin-1-yl)-8-benzyl-5,6,7,8-tetrahydronaphthalen-2-yl)azetidin-3-yl)ethanesulfonamide]",≤ 100,≦5 L/h/Kg
"Cn1cnc(S(=O)(=O)NC2(C)CN(c3ccc4c(c3)[C@@H](Cc3ccccc3)[C@@H](N3CCC3)CC4)C2)c1 [Example 7, N-(1-((7S,8R)-7-(azetidin-1-yl)-8-benzyl-5,6,7,8-tetrahydronaphthalen-2-yl)-3-methylazetidin-3-yl)-1-methyl-1H-imidazole-4-sulfonamide]",≤ 100,≦5 L/h/Kg

# More lines, now with the values ahead:
Ki (human GlyT1c transporter) [nM],human mCl [1],SMILES
≤ 10,≦5 L/h/Kg,"Cn1cnc(S(=O)(=O)N[C@H]2C[C@H](c3ccc4c(c3)[C@@H](Cc3ccccc3)[C@@H](N3CCC3)CC4)C2)c1 [Example 12, N-((1R,3r)-3-((7S,8R)-7-(azetidin-1-yl)-8-benzyl-5,6,7,8-tetrahydronaphthalen-2-yl)cyclobutyl)-1-methyl-1H-imidazole-4-sulfonamide]"
≤ 10,≦5 L/h/Kg,"CCCS(=O)(=O)NC1CN(c2ccc3c(c2)[C@@H](Cc2ccccc2)[C@@H](N2CC4CC4C2)CC3)C1 (stereo partly drawn) [Example 17, N-(1-((7S,8R)-8-benzyl-7-(3-azabicyclo[3.1.0]hexan-3-yl)-5,6,7,8-tetrahydronaphthalen-2-yl)azetidin-3-yl)propane-1-sulfonamide]"
≤ 10,≦5 L/h/Kg,"Cn1cc(S(=O)(=O)NC2CN(c3ccc4c(c3)[C@@H](Cc3ccccc3)[C@@H](N3CC5CC5C3)CC4)C2)nn1 (stereo partly drawn) [Example 16, N-(1-((7S,8R)-8-benzyl-7-(3-azabicyclo[3.1.0]hexan-3-yl)-5,6,7,8-tetrahydronaphthalen-2-yl)azetidin-3-yl)-1-methyl-1H-1,2,3-triazole-4-sulfonamide]"
≤ 10,≦5 L/h/Kg,"Cn1cnc(S(=O)(=O)NC2CN(c3ccc4c(c3)[C@@H](Cc3ccccc3)[C@@H](N3CCC3)CC4)C2)c1 [Example 1, N-(1-((7S,8R)-7-(azetidin-1-yl)-8-benzyl-5,6,7,8-tetrahydronaphthalen-2-yl)azetidin-3-yl)-1-methyl-1H-imidazole-4-sulfonamide]"
≤ 10,≦5 L/h/Kg,"CCCS(=O)(=O)NC1CN(c2ccc3c(c2)[C@@H](Cc2ccccc2)[C@@H](N2CCC2)CC3)C1 [Example 5, N-(1-((7S,8R)-7-(azetidin-1-yl)-8-benzyl-5,6,7,8-tetrahydronaphthalen-2-yl)azetidin-3-yl)propane-1-sulfonamide]"
